Experiment: Antagonist activity at PAR4 in human platelet-rich plasma assessed as inhibition of gamma-thrombin-induced platelet aggregation preincubated for 5 mins followed by gamma-thrombin stimulation

IC50 [µM] | SMILES
0.0021 | COc1cc(OCc2nc(-c3ccc(C(=O)N(C)C)cc3)sc2C)c2cc(-c3cn4nc(OC)sc4n3)oc2c1 [US9688695, 66]
2.6 | CSc1nn2cc(-c3cc4ccccc4o3)nc2s1 [US9862730, Example 1]
